Legend:
[1] = test system: PC12 cells; test: Uptake and incorporation of [3H]myo-inositol into PC12 cells following treatment with inositol analogs; format: cell-based, rat
Description: Since myo-inositol must be incorporated into the cellular plasma membranes in order for it to serve its role as a second messenger, we therefore verified the ability of the 1- and 3-fluoro-myo-inositol analogs to perturb the incorporation of myo-inositol into cellular plasma membranes by the enzyme CDP-diacylglycerol-inositol phosphatidyltransferase (phosphatidylinositol synthetase).
These tests were conducted by treating cells for either 1, 3, 5, or 7 days with the myo-inositol analogs, followed by a brief exposure to radiolabeled myo-inositol ([^3 H]myo-inositol). The extent of incorporation of tritiated myo-inositol would, therefore, reflect the extent to which phosphatidylinositol and its phosphorylated analogs are deficient in the cellular plasma membranes.
Cells were grown as described hereinabove. Twenty-four hours after plating, the medium was changed and cells were exposed to either inositol free medium (Control 2) or medium containing either the 1- or the 3-fluoro-myo-inositol analog. […] Samples from both the pellet and supernatant were then obtained and the levels of radioactivity in each were determined. Radioactivity in the supernatant corresponded to the amount of free [^3 H]myo-inositol in the cytoplasm of the cell, whereas the radioactivity present in the TCA-precipated pellet represented [^3 H]myo-inositol incorporated into the cellular plasma membranes. […]

[2] = biological target: T1, myo-inositol transporter (Rattus norvegicus, UniProt Q80WA5); test: [3H]myo-inositol uptake by the myo-inositol transporter in PC12 cells; format: cell-based; details: for Maximal Transport Rate Vmax: in presence of fixed 1 mM analog
T1 construct: PC12 cells were gently detached and maintained in a suspension culture; endogenous in cells; host or cells: PC12
T1 sequence (Q80WA5 1-718): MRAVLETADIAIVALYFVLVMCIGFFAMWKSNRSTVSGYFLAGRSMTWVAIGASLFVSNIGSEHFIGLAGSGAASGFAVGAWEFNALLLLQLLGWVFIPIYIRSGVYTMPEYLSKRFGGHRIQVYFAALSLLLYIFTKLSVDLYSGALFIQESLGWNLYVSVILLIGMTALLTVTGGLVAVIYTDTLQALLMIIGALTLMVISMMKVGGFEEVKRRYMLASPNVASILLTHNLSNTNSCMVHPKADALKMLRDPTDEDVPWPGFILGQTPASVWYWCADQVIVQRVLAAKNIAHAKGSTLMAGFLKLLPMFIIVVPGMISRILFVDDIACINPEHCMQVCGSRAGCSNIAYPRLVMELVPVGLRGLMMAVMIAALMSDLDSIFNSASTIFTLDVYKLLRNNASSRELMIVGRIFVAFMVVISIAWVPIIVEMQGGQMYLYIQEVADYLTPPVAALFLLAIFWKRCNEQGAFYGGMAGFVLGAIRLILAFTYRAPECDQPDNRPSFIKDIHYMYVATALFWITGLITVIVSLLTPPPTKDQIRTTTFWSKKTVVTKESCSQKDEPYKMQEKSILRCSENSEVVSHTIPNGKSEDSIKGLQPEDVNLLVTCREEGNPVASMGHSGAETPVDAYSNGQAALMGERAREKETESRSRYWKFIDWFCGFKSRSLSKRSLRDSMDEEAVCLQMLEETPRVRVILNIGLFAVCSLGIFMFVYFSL
Description: To determine if the effect of the fluoro-myo-inositol analogs might be mediated by the blockade of the myo-inositol transporter, which is responsible for uptake and accumulation of myo-inositol into the cell, the ability of these two compounds to block [^3 H]myo-inositol transport was studied directly.
The uptake of [^3 H]myo-inositol by the myo-inositol transporter was determined as follows: PC12 cells were gently detached and maintained in a suspension culture in RPMI medium (both myo-inositol and serum free) at 37° C. [^3 H]myo-inositol was added to this culture at a concentration of 1μCi/ml. Aliquots of this suspension were removed at the indicated time, diluted in 10 volumes of ice-cold PBS containing 10 mM unlabelled myo-inositol to stop the uptake process, centrifuged at 4° C. for 20 minutes at 50xg. The cell pellet, which contained the transported [^3 H]myo-inositol, was dissolved in dilute NaOH and the radioactivity quantified by liquid scintillation counting.
The […] and Vmax of myoinositol were determined from LineweaverBurke plots
of the uptake of [^3 H]myoinositol (25 nM) in the presence of
increasing concentrations of unlabeled myoinositol in PC12 cells. The Ki
of the two fluoromyo-inositol analogs was determined by conducting the
uptake studies in the presence of a fixed concentration (1 mM) of each

[3] = test system: PC12 cells; test: Effects of fluoroinositol treatment on cell size (protein per cell, Lowry); format: cell-based, rat
Excerpt: As cells grow in culture, the size of an individual cell varies in a fairly predictable way. The size of a cell can be expressed as the amount of protein present per cell. […] Immediately after mitosis, the cell size drops considerably, frequently to levels approximately half of the pre-mitotic level.
By investigating the size of a cell, it is possible to determine at which point within the cell cycle inhibitors of cell replication are exerting their effects. Accordingly, we investigated the effect of the 1- and 3-fluoro-myo-inositol analogs on the size of cells chronically treated with such analogs.
Cells were grown and treated with 1- and 3-fluoro-myo-inositol analogs as described in Example XIII. On the days indicated, cells were gently harvested without disruption, and the number of cells counted in triplicate in a cell counting chamber. Following determination of the number of cells per sample, the remainder of the cells were pelleted in a microcentrifuge as described hereinabove, and the protein in the sample was determined by the method of Lowry. Thus, it was possible to derive from these two data sets the amount of protein per cell, which is expressed as nanograms of protein per cell, as indicated in Table 3: […]

[4] = test system: PC12 cells; test: Cell growth inhibition in PC12 cells (cell counts; dose response and time course); format: cell-based, rat; details: dose response
Description: The biological effects of the 3-fluoro and 1-fluoro myo-inositol analogs were tested in PC12 cells, a cell line derived from a rat pheochromocytoma, which has been widely used to study the effects of various growth factors and differentiation promoters as further described by Green, L. A., et al., Adv. Cell Neurobiol., 3, 373-414, (1982), the disclosure of which is incorporated herein by reference.
PC12 cells were seeded at a density of 3.3×10^5 cells/cm^2 in plastic culture dishes and grown at 37° C. in a humidified atmosphere of 95% air/5% CO2. The basal medium used in these experiments was RPMI-1640 medium (Gibco). In some experiments a specially formulated inositol-free RPMI-1640 medium (Gibco) was used. This basal medium was supplemented with either normal or extensively dialyzed horse serum (10%) and fetal calf serum (5%) (Gibco). […]
A dose-response study was performed by growing cells in the presence of certain concentrations of the 3-fluoro and the 1-fluoro-myo-inositol analogs. At the end of five days, the cells were counted by the means described hereinabove.
The time course effect on cell replication was then examined, using the concentration of 1-fluoro and 3-fluoro myo-inositol analogs determined to have maximal effects in the dose response study of Table 1. […]

## O[C@@H]1[C@@H](O)[C@H](O)[C@@H](F)[C@@H](O)[C@H]1O [3-deoxy-3-fluoroinositol, 3-deoxy-3-fluoro-myo-inositol]
[1]; PC12 cells, result in words
  level of radioactively-labeled myo-inositol incorporated into the cellular plasma membranes: quite low
[2]
  Maximal Transport Rate Vmax: 2.27 nmol/mg/h

## O[C@H]1[C@H](O)[C@@H](O)[C@H](O)[C@@H](O)[C@H]1O [Myo-inositol, myo-inositol]
[2]; Lineweaver-Burke plots, [3H]myo-inositol 25 nM with increasing unlabeled myo-inositol
  Affinity Constant K (Ka): 45 µM

## O[C@@H]1[C@@H](O)[C@@H](O)[C@@H](F)[C@H](O)[C@H]1O [1-deoxy-1-fluoroinositol, 1-deoxy-1-fluoro-myo-inositol]
[1]; after several days of exposure
  increase in the number of unoccupied sites for myo-inositol in the cellular plasma membranes: 10 fold
[3]
  plateau of protein per cell relative to protein levels on day one: approximately twice
[4]
  potency in inhibiting cell replication relative to the 3-fluoro-myo-inositol analog: about five-fold more potent
[4]; listed as I-fluoro-myo-inositol analog
  potency in inhibiting cell replication relative to the 3-fluoro-myo-inositol analog: 5 fold
[2]
  Maximal Transport Rate Vmax: 2.27 nmol/mg/h

Source: patent publication US5053399A, “Myo-inositol analogs and methods for their use” (University of Pittsburgh, priority 1990, dated 1991)
